Tested on: MMP-2
Test: Substrate phage display with NGS: relative probability (RP) of P3-P1' tetramer clusters
Format: biochemical, human
Conditions: for avg_RP: MMP2 - no binning; for relative_probability: tetramer clusters unique to the MMP-2 selectome, MMP-2 RP
[1] = average relative probability (RP) of the P3-P1' tetramer, redundant tetramers have been averaged out
[2] = average relative probability of the P3-P1' tetramer, redundant tetramers have been averaged out
[3] = average relative probability of the tetramer, redundant tetramers averaged out
[4] = tetramer annotation of MMP-2 cleavage sites in all substrates from MEROPS
[5] = tetramer probability in MMP2 set / naive library, 200 nM protease, 2 h, 37°C
[6] = tetramer projected onto MMP-2 cleavage sites determined by Prudova et al. (2010)
[7] = tetramer annotation of MMP-2 cleavage sites in physiologic substrates from MEROPS

Substance	avg_RP [2]	avg_RP [3]	other results
PERL			avg_RP [1]: 16.3826
LAHV	11.7405		
VSEL	24.0996		
PRLY		15.7594	
FRML	0.2112		
YNHL		3.693	
ISHL	30.7015		
YGHL	11.3746		
SGEL	0.1149		
IWKL	0.0593		
WAHL	7.453		
PYSL		30.7259	
LWSL	8.3838		
HLAL		11.3603	
VRYL		18.3724	
AYSL		18.7071	
LTHL	4.2994		
AHHL			avg_RP [1]: 16.717
GQGL			avg_RP [1]: 0.1555
PTSL	28.926		
LLHL			avg_RP [1]: 16.5808
LHSL	18.7402		
AQSL	18.365		
PLGI		33.936	
MLHL		8.4169	

Substance	avg_RP [2]	avg_RP [3]	other results
HANL [P3-P1' tetramer cluster]			relative_probability: 30.86
SLAL		6.0193	
VMRL			avg_RP [1]: 0.4281
PLQI		21.9897	
PRAW	34.1791		
AAGL			relative probability (RP) [4]: 29.36
LMRL	0.1149		
LSSL		24.2822	
FLHL	0.8093		
WFNL		0	
PRSW		32.796	
VFRL			avg_RP [1]: 1.3631
ARAM		25.2992	
LGAM [P3-P1' tetramer cluster]			relative_probability: 29.74
PLSQ	26.5842		
PYML	24.9477		
PAWM	34.3571		
PLGL		35.3536	
YANL	27.7486		
GLHL			avg_RP [1]: 0.1267
SMRL	0		
AGHL			avg_RP [1]: 15.0568
AYNL	20.8713		
PHWL	28.844		
TWAL	0.4366		

Substance	avg_RP [2]	avg_RP [3]	other results
PLSW			avg_RP [1]: 31.2944
GMAL			avg_RP [1]: 1.3132
SNWL		9.68	
PKNQ		13.2723	
LANI [P3-P1' tetramer cluster]			relative_probability: 29.81
TWSM			avg_RP [1]: 0
VMGI		12.4242	
LAAI		28.8382	
VFWM	10.3215		
YMSL		0.0725	
VYDL	1.2439		
SWPL			avg_RP [1]: 0.4201
VGAL		32.8382	
PLLL		15.2696	
AYHL		15.3364	
PLAS	26.7589		
PAPW		31.7353	
PFHL	23.4724		
VKGM		15.5854	
ASAL	28.9092		
LLDL	0.3542		
INML	5.8285		
WSNL	17.9326		
MNWL [P3-P1' tetramer cluster]			relative_probability: 30.10
ALAM			avg_RP [1]: 20.8553

Substance	avg_RP [2]	avg_RP [3]	other results
SASL			avg_RP [1]: 17.7881
IALL		16.3586	
WMNL		0	
PRYM		28.0367	
PQGM		29.6059	
PFYL	17.7778		
AHPL			avg_RP [1]: 24.4555
AWNM			avg_RP [1]: 2.0017
VWML		1.4023	
IGQL [P3-P1' tetramer cluster]			relative_probability: 30.24
IFRL	0.1412		
PRGN		16.6168	
VRWY		17.3102	
PFFM	3.5092		
GHRL			avg_RP [1]: 0.0505
PAGL [P3-P1' tetramer cluster]	36.0156		relative probability (RP) [5]: 36.0156
ALGL			avg_RP [1]: 26.3282
PLRI			avg_RP [1]: 15.7039
IDLL			avg_RP [1]: 0.1325
PRNV		26.6015	
VMSL	14.6983		
ALNL	17.2813		
PYFL			avg_RP [1]: 19.1471
ARAW	17.4628		
LANW [P3-P1' tetramer cluster]			relative_probability: 29.93

Substance	avg_RP [2]	avg_RP [3]	other results
PYLL			avg_RP [1]: 11.898
YYGL	0.142		
WASM			avg_RP [1]: 16.5169
PLDM			avg_RP [1]: 20.8822
PWLQ	0.2574		
WGNM	3.7232		
PYAM		28.0901	
VNNL	17.6966		
PYKY		4.8733	
AHGI		8.8809	
HQNL	17.7487		
VEML		2.1238	
PLMM	20.5706		
GMNM	0		
SRAL		12.4506	
GWDL			avg_RP [1]: 0
AGAL	19.769		
VYAW	0.6193		
PLKI		14.0985	
GNRL	0.0463		
PEWY		14.0361	
VSFL		5.9184	
PYSW		16.4352	
VRMM		13.0027	
FEHL	1.2103		

Substance	avg_RP [2]	avg_RP [3]	other results
LRNL		27.1336	
ALNF		9.2594	
LLAM		10.8556	
PMDY		10.9087	
VWLL	0.5351		
TNWL		15.348	
PASL [P3-P1' tetramer cluster]	36.4285		relative probability (RP) [5]: 36.4285; relative probability (RP) [6]: 36.43
IRYL		17.8741	
PSAQ		28.0379	
VRKL		0	
MSWM [P3-P1' tetramer cluster]			relative_probability: 29.68
MDLL	0.2864		
IAHL	32.9345		
PVHY		23.3589	
VRHI			avg_RP [1]: 19.1429
YMHI			avg_RP [1]: 0
PMGM			avg_RP [1]: 28.512
VAKM		17.3627	
PWFM		3.6842	
AAEL			relative probability (RP) [4]: 15.51
PKLL		15.3454	
PFFL	12.8224		
ISWM		28.3587	
VKHL	14.8595		
SLRL			avg_RP [1]: 0

Substance	avg_RP [2]	avg_RP [3]	other results
HRSI			avg_RP [1]: 0.1819
GLAL	0.6848		
PYNL		30.8263	
HQSL			avg_RP [1]: 10.5998
GYSL	0.0471		
RIIG			relative probability (RP) [7]: 0.08
WYGI		0.0533	
PVGL	35.2016		
PMWS		5.1021	
VFEL		0.8652	
FSNL	24		
LYGL	17.2472		
TRWY		6.7229	
PFRL	16.3818		
IRWL			avg_RP [1]: 25.5858
PSSL	35.4913		
SFNL	1.0952		
VMKL			avg_RP [1]: 0.3599
FSRI			relative probability (RP) [7]: 0.35
SMNL	2.1645		
MLGL			avg_RP [1]: 16.6463
AWNL		14.0049	
VAYL		26.5348	
PLMY		17.2027	
PIHM		18.8886	

Substance	avg_RP [2]	avg_RP [3]	other results
VAWL			avg_RP [1]: 32.2185
GRHL		3.5979	
YGEL	16.6627		
AHGL		23.6336	
VYAL			avg_RP [1]: 19.6906
MAWL		31.5866	
PHCL			avg_RP [1]: 0.499
LSRL	14.3329		
AVAL	27.4369		
LGTL	24.6198		
GNFL			avg_RP [1]: 0.2435
LWTL	0.0853		
GAAL	15.7207		
GDRL			avg_RP [1]: 0
VHAL			avg_RP [1]: 19.753
PGSM			avg_RP [1]: 25.6264
ALPM			avg_RP [1]: 15.3537
PAHL			avg_RP [1]: 34.5554
WAHI		0.0575	
AFTM			avg_RP [1]: 0
VELL	0		
MNSL		18.7113	
PNFL		15.743	
LAAW		24.7038	
VKWL		19.0036	

Substance	avg_RP [2]	avg_RP [3]	other results
YGNL		24.0019	
VRGV		2.6159	
GQHL	1.1642		
VWHV	0		
AFHI			avg_RP [1]: 0.4414
PAQM		28.6142	
WFAL		0	
VHML			avg_RP [1]: 3.9806
FSHL		16.5216	
HAWM		17.1047	
VNSL	13.3292		
VLHL	19.5348		
MHEL			avg_RP [1]: 0.0484
ARLL		1.104	
PQSL	33.5105		
PSLY		18.1013	
LARL			avg_RP [1]: 21.3172
ISYM	22.3091		
ANYL	3.9008		
LLSL		2.0177	
FQWL			avg_RP [1]: 13.3419
PLVY		0.5489	
LGEL [P3-P1' tetramer cluster]			relative_probability: 29.44
VFGL	12.5523		
PRFI		22.3274	

Substance	avg_RP [2]	avg_RP [3]	other results
VRHL		25.4239	
MSNL [P3-P1' tetramer cluster]			relative_probability: 30.28
LMGL		28.5499	
AGSL			relative probability (RP) (acc.to MMP2) (MMP2, RP of matching P3-P1' tetramer, common set of MMP2-9 selectome, RP above KL threshold): 14.97; relative probability (RP) of matching tetramer (P3-P1' tetramer matching the MS detected MMP2 cleavage sequence, RP_above_4.5): 14.97
AHAL			avg_RP [1]: 27.1646
QQNL	4.2466		
VWKL			avg_RP [1]: 0.2836
WESL	0.6249		
PRNL [P3-P1' tetramer cluster]			relative probability (RP) [6]: 35.13
LWYL	0.6796		
VFHM	5.168		
AISM	11.4166		
GNSL	0.2884		
LGHL [P3-P1' tetramer cluster]	31.1653		relative_probability: 31.17
PIML	15.4441		
GLEL	0		
LNSL	18.3633		
MMSL	6.1978		
VRGL		29.092	
